In the data set the test system is CCRIS mutagenicity, Ames/micronucleus/aberration tests. Nature of the data set: CCRIS mutagenicity studies.
[1] abbreviates: Test System: AMES SALMONELLA TYPHIMURIUM, Strain/Indicator: TA98, Metabolic Activation: NONE, Method: STANDARD PLATE.
[2] abbreviates: Test System: AMES SALMONELLA TYPHIMURIUM, Strain/Indicator: TA100, Metabolic Activation: NONE, Method: STANDARD PLATE.
Where [3] appears, read: Test System: AMES SALMONELLA TYPHIMURIUM, Strain/Indicator: TA98, Metabolic Activation: RAT, LIVER, S-9, AROCLOR 1254, Method: STANDARD PLATE.
Where [4] appears, read: Test System: AMES SALMONELLA TYPHIMURIUM, Strain/Indicator: TA100, Metabolic Activation: RAT, LIVER, S-9, AROCLOR 1254, Method: STANDARD PLATE.
The mark [5] stands for this setting: Test System: AMES SALMONELLA TYPHIMURIUM, Strain/Indicator: TA1535, Metabolic Activation: HAMSTER, LIVER, S-9, AROCLOR 1254, Method: STANDARD PLATE.
[6] abbreviates: Test System: AMES SALMONELLA TYPHIMURIUM, Strain/Indicator: TA1535, Metabolic Activation: NONE, Method: STANDARD PLATE.
Setting [7] is: Test System: AMES SALMONELLA TYPHIMURIUM, Strain/Indicator: TA1535, Metabolic Activation: RAT, LIVER, S-9, AROCLOR 1254, Method: STANDARD PLATE.
Setting [8] is: Test System: AMES SALMONELLA TYPHIMURIUM, Strain/Indicator: TA1537, Metabolic Activation: NONE, Method: STANDARD PLATE.
Setting [9] is: Test System: AMES SALMONELLA TYPHIMURIUM, Strain/Indicator: TA1537, Metabolic Activation: RAT, LIVER, S-9, AROCLOR 1254, Method: STANDARD PLATE.

The source made the active and inactive calls. No rule for the calls is given here.

For `Cc1cccc(C)c1NC(=O)CN1CCCC1=O`, the mutagenic call by setting is: (Test System: AMES SALMONELLA TYPHIMURIUM, Strain/Indicator: TA98, Metabolic Activation: NONE, Method: PREINCUBATION) “inactive; negative”; (Test System: AMES SALMONELLA TYPHIMURIUM, Strain/Indicator: TA98, Metabolic Activation: RAT, LIVER, S-9, SODIUM PHENOBARBITAL AND 5,6-BENZOFLAVONE, Method: PREINCUBATION) “inactive; negative”; (Test System: AMES SALMONELLA TYPHIMURIUM, Strain/Indicator: TA100, Metabolic Activation: NONE, Method: PREINCUBATION) “inactive; negative”; (Test System: AMES SALMONELLA TYPHIMURIUM, Strain/Indicator: TA100, Metabolic Activation: RAT, LIVER, S-9, SODIUM PHENOBARBITAL AND 5,6-BENZOFLAVONE, Method: PREINCUBATION) “inactive; negative”; (Test System: AMES SALMONELLA TYPHIMURIUM, Strain/Indicator: TA1535, Metabolic Activation: NONE, Method: PREINCUBATION) “inactive; negative”; (Test System: AMES SALMONELLA TYPHIMURIUM, Strain/Indicator: TA1535, Metabolic Activation: RAT, LIVER, S-9, SODIUM PHENOBARBITAL AND 5,6-BENZOFLAVONE, Method: PREINCUBATION) “inactive; negative”. Besides, the mutagenic call by setting is: (Test System: AMES SALMONELLA TYPHIMURIUM, Strain/Indicator: TA1537, Metabolic Activation: NONE, Method: PREINCUBATION) “inactive; negative”; (Test System: AMES SALMONELLA TYPHIMURIUM, Strain/Indicator: TA1537, Metabolic Activation: RAT, LIVER, S-9, SODIUM PHENOBARBITAL AND 5,6-BENZOFLAVONE, Method: PREINCUBATION) “inactive; negative”; (Test System: E. COLI, Strain/Indicator: WP2 UVRA, Metabolic Activation: NONE, Method: PREINCUBATION) “inactive; negative”; (Test System: E. COLI, Strain/Indicator: WP2 UVRA, Metabolic Activation: RAT, LIVER, S-9, SODIUM PHENOBARBITAL AND 5,6-BENZOFLAVONE, Method: PREINCUBATION) “inactive; negative”.

For `COc1cc(N=Nc2ncc([N+](=O)[O-])s2)c(NC(C)=O)cc1N(CCOC(=O)OCC(C)C)CCOC(=O)OCC(C)C`, the mutagenic call (End Point: IN VITRO CHROMOSOMAL ABERRATIONS, Test System: CHL CELLS, Metabolic Activation: RAT, LIVER, S-9, SODIUM PHENOBARBITAL AND 5,6-BENZOFLAVONE) was “active; positive (ploidy changes)”.

As to `Cc1ccccc1N=Nc1ccc(N=Nc2c(O)ccc3ccccc23)c(C)c1`, the mutagenic call runs as follows: (Test System: AMES SALMONELLA TYPHIMURIUM, Strain/Indicator: TA98, Metabolic Activation: HAMSTER, LIVER, S-9, Method: PREINCUBATION (PRIVAL METHOD)) “active; positive”; under setting [1], “inactive; negative”; under setting [2], “inactive; negative”.

`O=CC1=CCCC2CC12C=O` (stereo not drawn): the mutagenic call is “active; positive” under setting [1] and “active; positive” under setting [2].

Consider `COc1cc2c(c(OC)c1OC)-c1ccc(OC)c(=O)cc1[C@@H](NC(C)=O)CC2`, for which the mutagenic call runs as follows: (End Point: IN VITRO CHROMOSOMAL ABERRATIONS, Test System: CHINESE HAMSTER OVARY CELLS, Metabolic Activation: NONE) “active; positive (ploidy changes)”; (End Point: IN VITRO CHROMOSOMAL ABERRATIONS, Test System: CHINESE HAMSTER OVARY CELLS, Metabolic Activation: RAT, LIVER, S-9, AROCLOR 1254) “inactive; negative”; (End Point: IN VITRO MICRONUCLEUS, Test System: CHL/IU CELLS, Metabolic Activation: NONE) “active; positive”; (End Point: IN VIVO MICRONUCLEUS, Test System: BLOOD ERYTHROCYTES, Species: MOUSE, Strain/Sex: CD-1/MALE, Route: ORAL) “active; positive”; (End Point: In vitro micronucleus, Test System: Mouse lymphoma L5178Y cells, Metabolic Activation: None) “active; positive”; (End Point: In vivo micronucleus, Test System: Micronucleated, binucleated and multinucleated hepatocytes, Species: Mouse, Strain/Sex: ddY/Male, Route: Intravenous) “active; positive for binucleated and multinucleated cells when agent administered after”. Besides, the mutagenic call is “inactive; negative” (Test System: AMES SALMONELLA TYPHIMURIUM, Strain/Indicator: TA98, Metabolic Activation: HAMSTER, LIVER, S-9, AROCLOR 1254, Method: STANDARD PLATE); “inactive; negative” under setting [1]; “inactive; negative” under setting [3]; “inactive; negative” (Test System: AMES SALMONELLA TYPHIMURIUM, Strain/Indicator: TA100, Metabolic Activation: HAMSTER, LIVER, S-9, AROCLOR 1254, Method: STANDARD PLATE); “inactive; negative” under setting [2]; “inactive; negative” under setting [4]. Further, the mutagenic call reads like this: under setting [5], “inactive; negative”; under setting [6], “inactive; negative”; under setting [7], “inactive; negative”; (Test System: AMES SALMONELLA TYPHIMURIUM, Strain/Indicator: TA1537, Metabolic Activation: HAMSTER, LIVER, S-9, AROCLOR 1254, Method: STANDARD PLATE) “inactive; negative”; under setting [8], “inactive; negative”; under setting [9], “inactive; negative”. Further, the mutagenic call reads like this: (Test System: AMES SALMONELLA TYPHIMURIUM, Strain/Indicator: TA1538, Metabolic Activation: HAMSTER, LIVER, S-9, AROCLOR 1254, Method: STANDARD PLATE) “inactive; negative”; (Test System: AMES SALMONELLA TYPHIMURIUM, Strain/Indicator: TA1538, Metabolic Activation: NONE, Method: STANDARD PLATE) “inactive; negative”; (Test System: AMES SALMONELLA TYPHIMURIUM, Strain/Indicator: TA1538, Metabolic Activation: RAT, LIVER, S-9, AROCLOR 1254, Method: STANDARD PLATE) “inactive; negative”; (Test System: MOUSE LYMPHOMA, Strain/Indicator: L5178Y (TK+/TK-), Metabolic Activation: NONE) “active; positive”; (Test System: MOUSE LYMPHOMA, Strain/Indicator: L5178Y (TK+/TK-), Metabolic Activation: NONE, Method: SUSPENSION/PLATE) “inactive; negative. reevaluation of results: negative”; (Test System: MOUSE LYMPHOMA, Strain/Indicator: L5178Y (TK+/TK-), Metabolic Activation: RAT, LIVER, S-9, AROCLOR 1254, Method: SUSPENSION/PLATE) “inactive; negative. reevaluation of results: negative”. For the same molecule, the mutagenic call by setting is: (Test System: MOUSE LYMPHOMA, Strain/Indicator: L5178Y(TK+/TK-), Metabolic Activation: NONE, Method: MICROWELL) “active; positive”; (Test System: Mouse lymphoma, Strain/Indicator: L5178Y (tk+/tk-)/Trifluorothymidine, Metabolic Activation: None, Method: Microtiter) “inactive; negative”.

Take `CN(Cc1cccc(Cl)c1)N=O`: the mutagenic call runs as follows: under setting [5], “active; positive”; under setting [6], “inactive; negative”.

`CC(C)(Br)C(Br)CCl` (stereo not drawn): the mutagenic call runs as follows: (Test System: AMES SALMONELLA TYPHIMURIUM, Strain/Indicator: TA100, Metabolic Activation: RAT, LIVER, MICROSOMES, PHENOBARBITAL, Method: PREINCUBATION) “inactive; negative”; (Test System: AMES SALMONELLA TYPHIMURIUM, Strain/Indicator: TA100, Metabolic Activation: RAT, LIVER, MICROSOMES, Method: PREINCUBATION) “inactive; negative”.

On to `CCCC(=O)Nc1snc2cc(Cl)ccc12`, for which the mutagenic call under setting [2] was “inactive; negative”; the mutagenic call (Test System: AMES SALMONELLA TYPHIMURIUM, Strain/Indicator: TA100, Metabolic Activation: S-9, Method: STANDARD PLATE) was “inactive; negative”; the mutagenic call under setting [8] is “inactive; negative”; the mutagenic call (Test System: AMES SALMONELLA TYPHIMURIUM, Strain/Indicator: TA1537, Metabolic Activation: S-9, Method: STANDARD PLATE) is “inactive; negative”.

Take `Cc1cc(C(=O)NNCc2ccccc2)no1`: the mutagenic call under setting [1] was “inactive; negative”; the mutagenic call under setting [3] is “inactive; negative”; the mutagenic call under setting [2] was “inactive; negative”; the mutagenic call under setting [4] is “inactive; negative”; the mutagenic call under setting [6] is “inactive; negative”; the mutagenic call under setting [7] was “inactive; negative”. For the same molecule, the mutagenic call was “inactive; negative” under setting [8] and “inactive; negative” under setting [9].
